Laboratory results from US20020013295A1, “Naaladase inhibitors for treating amyotrophic lateral sclerosis” (priority 2000, published 2002).
Residues, ends and D or L forms follow the SMILES beside them.

How the values were obtained:
NAALADase = NAALADase (Rattus norvegicus, UniProt P70627); conditions: NAAG as substrate of NAALADase; cited from earlier work
transgenic SOD mice = experiment: Effect of NAALADase inhibitor on onset of clinical disease, transgenic mice model of FALS; type: in vivo; conditions: for Disease onset for compound treated mice: 50 mg/kg, from one month old
Method: The effect of NAALADase inhibitors on the onset of ALS was tested using the transgenic mice model of familial amyotrophic lateral sclerosis (FALS), which is detailed in Gurney, M., Annals of Neurology (1996) 39:147-157, and otherwise well known in the art. One month old transgenic SOD mice were treated with daily intraperitoneal injections of a vehicle (50 mM HEPES-buffered saline) or a NAALADase inhibitor (50 mg/kg 2-[[(2,3,4,5,6-pentafluorobenzyl)hydroxyphosphinyl]methyl]-pentanedioic acid (“Compound A” )). Clinical symptoms of the mice were monitored daily. The onset of clinical disease was scored by examining each mouse for its shaking of limbs when suspended in the air by its tail, cross spread of spinal reflexes, hindlimb paralysis, body weight and wheel running activity.

Sequence of NAALADase (P70627 whole entry): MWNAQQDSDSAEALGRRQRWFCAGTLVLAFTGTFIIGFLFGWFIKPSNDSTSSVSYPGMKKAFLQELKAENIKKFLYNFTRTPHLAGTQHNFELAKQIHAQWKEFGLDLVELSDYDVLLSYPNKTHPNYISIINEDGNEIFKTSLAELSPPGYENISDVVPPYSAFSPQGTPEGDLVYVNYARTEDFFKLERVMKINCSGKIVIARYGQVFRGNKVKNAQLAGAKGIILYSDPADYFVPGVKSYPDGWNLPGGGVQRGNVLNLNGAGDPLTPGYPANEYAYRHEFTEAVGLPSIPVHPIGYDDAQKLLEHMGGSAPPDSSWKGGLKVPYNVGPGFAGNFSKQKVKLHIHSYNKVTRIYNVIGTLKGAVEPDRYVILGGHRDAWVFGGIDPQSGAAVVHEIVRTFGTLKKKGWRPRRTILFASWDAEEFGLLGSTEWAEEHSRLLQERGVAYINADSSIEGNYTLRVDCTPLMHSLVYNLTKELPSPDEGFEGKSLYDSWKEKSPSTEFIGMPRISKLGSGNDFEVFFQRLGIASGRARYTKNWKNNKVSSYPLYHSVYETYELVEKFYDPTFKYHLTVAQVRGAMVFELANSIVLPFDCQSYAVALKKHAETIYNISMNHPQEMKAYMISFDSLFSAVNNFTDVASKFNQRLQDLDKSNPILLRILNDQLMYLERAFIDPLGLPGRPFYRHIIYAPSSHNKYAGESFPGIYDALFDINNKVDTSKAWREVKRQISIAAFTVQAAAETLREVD

SMILES	Km (NAALADase)	Difference in disease onset, compound treated vs vehicle treated mice (transgenic SOD mice; Study 1)	Disease onset for compound treated mice (transgenic SOD mice; Study 1, daily intraperitoneal injections)	Difference in disease onset, compound treated vs vehicle treated mice (transgenic SOD mice; Study 2)	Disease onset for compound treated mice (transgenic SOD mice; Study 2, daily intraperitoneal injections)
CC(=O)N[C@@H](CC(=O)O)C(=O)N[C@@H](CCC(=O)O)C(=O)O [NAAG, N-acetyl-aspartyl-glutamate] (Ac-Asp-Glu-OH)	540 nM				
O=C(O)CCC(CCCS)C(=O)O (centres unmarked) [Compound B, 2-(3-sulfanylpropyl)pentanedioic acid]		32	221 days of age	25	166 days of age
